# Key:
# [1] = test system: TMD8 cells; test: Combined drug treatment with 5Z-7-Oxozeaenol and ibrutinib, CellTiter-Glo cell viability in TMD8 cell line; assay type: cell-based
# Procedure: A 40 μL aliquot of CellTiter-Glo® reagent was added directly into each well of the 96-W plate. The plate was then shaken on a Shaker (Labsystem Wellmix) at speed 5 for 10-20 min at room temperature. Next, about 100 μL of the mixed medium was transferred to a white, non-transparent, flat bottom 96-W plate for assaying. A Flexstation 3 luminometer was used for detecting and measuring the luminescent signals. Measurements were taken at room temperature.
# The luminescent measurements were subsequently processed and analyzed using CalcuSyn (CI) and Chalice Analyzer (synergy score). CalcuSyn performs the multiple drug dose-effect calculations using the Median Effect methods described by T-C Chou and P. Talalay in “Analysis of combined drug effects: a new look at a very old problem,” Trends Pharmacol. Sci. 4:450-454 (1983). In general, the resulting combination index (CI) obtained from the Chou-Talalay method defines quantitatively for additive effect (CI=1), synergism (CI<1), and antagonism (CI>1) in drug combinations. Chalice Analyzer utilizes the method described in Lehar et al. “Synergistic drug combinations improve therapeutic selectivity,” Nat. Biotechnol. 27(7):659-666 (2009). Synergy scores is higher than 1 indicate synergy between two compounds, with higher synergy scores indicating better synergy.
# 200 μl of TMD8 wt cells (1.0×10^4 cells) at 5.0×10^4 cells/ml was plated into each well of a 96-well plate. The cells were grown in RPMI-10P medium.
# The TAK1 inhibitor used for this experiment was 5Z-7-oxozeaenol. […] The stock solution for chloroquine diphosphate was prepared at 20 mM concentration. The CellTiter-Glo® assay follow the protocols of Example 1.
# [2] = test system: patients who have the activated B-cell like (ABC) subtype of DLBCL; conditions: cited from earlier work
smiles,measurement,setting,value
"COc1cc(O)c2c(c1)/C=C/C[C@H](O)[C@H](O)C(=O)/C=C\C[C@H](C)OC2=O [5Z-7-Oxozeaenol, 5Z-7-oxozeaenol]",luminescent signal (CellTiter-Glo),"[1]; 5Z-7-OXO 1 nM, ibrutinib 0 nM",259932
same,luminescent signal (CellTiter-Glo),"[1]; 5Z-7-OXO 1 nM, ibrutinib 0.00026 nM",249856
same,luminescent signal (CellTiter-Glo),"[1]; 5Z-7-OXO 1 nM, ibrutinib 0.00128 nM",259290
same,luminescent signal (CellTiter-Glo),"[1]; 5Z-7-OXO 1 nM, ibrutinib 0.0064 nM",236187
same,luminescent signal (CellTiter-Glo),"[1]; 5Z-7-OXO 1 nM, ibrutinib 0.032 nM",249545
same,luminescent signal (CellTiter-Glo),"[1]; 5Z-7-OXO 1 nM, ibrutinib 0.16 nM",181569
same,luminescent signal (CellTiter-Glo),"[1]; 5Z-7-OXO 1 nM, ibrutinib 0.8 nM",127363
same,luminescent signal (CellTiter-Glo),"[1]; 5Z-7-OXO 1 nM, ibrutinib 4 nM",98378.9
same,luminescent signal (CellTiter-Glo),"[1]; 5Z-7-OXO 1 nM, ibrutinib 20 nM",98536.7
same,luminescent signal (CellTiter-Glo),"[1]; 5Z-7-OXO 1 nM, ibrutinib 100 nM",78834.1
same,luminescent signal (CellTiter-Glo),"[1]; 5Z-7-OXO 10 nM, ibrutinib 0 nM",277804
same,luminescent signal (CellTiter-Glo),"[1]; 5Z-7-OXO 10 nM, ibrutinib 0.00026 nM",260616
same,luminescent signal (CellTiter-Glo),"[1]; 5Z-7-OXO 10 nM, ibrutinib 0.00128 nM",241442
same,luminescent signal (CellTiter-Glo),"[1]; 5Z-7-OXO 10 nM, ibrutinib 0.0064 nM",223023
same,luminescent signal (CellTiter-Glo),"[1]; 5Z-7-OXO 10 nM, ibrutinib 0.032 nM",222768
same,luminescent signal (CellTiter-Glo),"[1]; 5Z-7-OXO 10 nM, ibrutinib 0.16 nM",175048
same,luminescent signal (CellTiter-Glo),"[1]; 5Z-7-OXO 10 nM, ibrutinib 0.8 nM",120925
same,luminescent signal (CellTiter-Glo),"[1]; 5Z-7-OXO 10 nM, ibrutinib 4 nM",96219.6
same,luminescent signal (CellTiter-Glo),"[1]; 5Z-7-OXO 10 nM, ibrutinib 20 nM",86196
same,luminescent signal (CellTiter-Glo),"[1]; 5Z-7-OXO 10 nM, ibrutinib 100 nM",86511.6
same,luminescent signal (CellTiter-Glo),"[1]; 5Z-7-OXO 100 nM, ibrutinib 0 nM",167090
same,luminescent signal (CellTiter-Glo),"[1]; 5Z-7-OXO 100 nM, ibrutinib 0.00026 nM",168173
same,luminescent signal (CellTiter-Glo),"[1]; 5Z-7-OXO 100 nM, ibrutinib 0.00128 nM",147600
same,luminescent signal (CellTiter-Glo),"[1]; 5Z-7-OXO 100 nM, ibrutinib 0.0064 nM",151829
same,luminescent signal (CellTiter-Glo),"[1]; 5Z-7-OXO 100 nM, ibrutinib 0.032 nM",130054
same,luminescent signal (CellTiter-Glo),"[1]; 5Z-7-OXO 100 nM, ibrutinib 0.16 nM",98728.8
same,luminescent signal (CellTiter-Glo),"[1]; 5Z-7-OXO 100 nM, ibrutinib 0.8 nM",54512.9
same,luminescent signal (CellTiter-Glo),"[1]; 5Z-7-OXO 100 nM, ibrutinib 4 nM",42472
same,luminescent signal (CellTiter-Glo),"[1]; 5Z-7-OXO 100 nM, ibrutinib 20 nM",40678.2
same,luminescent signal (CellTiter-Glo),"[1]; 5Z-7-OXO 100 nM, ibrutinib 100 nM",34016
same,luminescent signal (CellTiter-Glo),"[1]; 5Z-7-OXO 1000 nM, ibrutinib 0 nM",27259.1
same,luminescent signal (CellTiter-Glo),"[1]; 5Z-7-OXO 1000 nM, ibrutinib 0.00026 nM",29868.2
same,luminescent signal (CellTiter-Glo),"[1]; 5Z-7-OXO 1000 nM, ibrutinib 0.00128 nM",25315.4
same,luminescent signal (CellTiter-Glo),"[1]; 5Z-7-OXO 1000 nM, ibrutinib 0.0064 nM",23976.6
same,luminescent signal (CellTiter-Glo),"[1]; 5Z-7-OXO 1000 nM, ibrutinib 0.032 nM",20081.4
same,luminescent signal (CellTiter-Glo),"[1]; 5Z-7-OXO 1000 nM, ibrutinib 0.16 nM",15015.6
same,luminescent signal (CellTiter-Glo),"[1]; 5Z-7-OXO 1000 nM, ibrutinib 0.8 nM",12627.5
same,luminescent signal (CellTiter-Glo),"[1]; 5Z-7-OXO 1000 nM, ibrutinib 4 nM",13032.5
same,luminescent signal (CellTiter-Glo),"[1]; 5Z-7-OXO 1000 nM, ibrutinib 20 nM",13048.3
same,luminescent signal (CellTiter-Glo),"[1]; 5Z-7-OXO 1000 nM, ibrutinib 100 nM",12982.5
same,luminescent signal (CellTiter-Glo),"[1]; 5Z-7-OXO 10000 nM, ibrutinib 0 nM",4563.35
same,luminescent signal (CellTiter-Glo),"[1]; 5Z-7-OXO 10000 nM, ibrutinib 0.00026 nM",4729.05
same,luminescent signal (CellTiter-Glo),"[1]; 5Z-7-OXO 10000 nM, ibrutinib 0.00128 nM",4731.68
same,luminescent signal (CellTiter-Glo),"[1]; 5Z-7-OXO 10000 nM, ibrutinib 0.0064 nM",4700.12
same,luminescent signal (CellTiter-Glo),"[1]; 5Z-7-OXO 10000 nM, ibrutinib 0.032 nM",5299.8
same,luminescent signal (CellTiter-Glo),"[1]; 5Z-7-OXO 10000 nM, ibrutinib 0.16 nM",5307.69
same,luminescent signal (CellTiter-Glo),"[1]; 5Z-7-OXO 10000 nM, ibrutinib 0.8 nM",5441.83
same,luminescent signal (CellTiter-Glo),"[1]; 5Z-7-OXO 10000 nM, ibrutinib 4 nM",5749.55
same,luminescent signal (CellTiter-Glo),"[1]; 5Z-7-OXO 10000 nM, ibrutinib 20 nM",5957.34
same,luminescent signal (CellTiter-Glo),"[1]; 5Z-7-OXO 10000 nM, ibrutinib 100 nM",6244.03
same,CI value for the 5Z-7-Oxozeaenol/ibrutinib combination,[1]; TMD8 cells,0.17
same,synergy score for the 5Z-7-Oxozeaenol/ibrutinib combination,[1]; TMD8 cells,4.63
same,synergy with ibrutinib (in words),[1]; TMD8 cells,Synergy was observed
"C=CC(=O)N1CCC[C@@H](n2nc(-c3ccc(Oc4ccccc4)cc3)c3c(N)ncnc32)C1 [ibrutinib, 1-((R)-3-(4-amino-3-(4-phenoxyphenyl)-1H-pyrazolo[3,4-d]pyrimidin-1-yl)piperidin-1-yl)prop-2-en-1-one]",luminescent signal (CellTiter-Glo),"[1]; 5Z-7-OXO 0 nM, ibrutinib 0.00026 nM",268264
same,luminescent signal (CellTiter-Glo),"[1]; 5Z-7-OXO 0 nM, ibrutinib 0.00128 nM",245879
same,luminescent signal (CellTiter-Glo),"[1]; 5Z-7-OXO 0 nM, ibrutinib 0.0064 nM",240905
same,luminescent signal (CellTiter-Glo),"[1]; 5Z-7-OXO 0 nM, ibrutinib 0.032 nM",249480
same,luminescent signal (CellTiter-Glo),"[1]; 5Z-7-OXO 0 nM, ibrutinib 0.16 nM",190532
same,luminescent signal (CellTiter-Glo),"[1]; 5Z-7-OXO 0 nM, ibrutinib 0.8 nM",126175
same,luminescent signal (CellTiter-Glo),"[1]; 5Z-7-OXO 0 nM, ibrutinib 4 nM",96203.8
same,luminescent signal (CellTiter-Glo),"[1]; 5Z-7-OXO 0 nM, ibrutinib 20 nM",90633.1
same,luminescent signal (CellTiter-Glo),"[1]; 5Z-7-OXO 0 nM, ibrutinib 100 nM",94612.5
same,overall response rate,[2],41%
same,overall survival,[2],9.7 month

# — patent US20170354655A1, “TLR INHIBITOR AND BRUTON'S TYROSINE KINASE INHIBITOR COMBINATIONS” (Pharmacyclics LLC, priority 2014, published 2017)
